Measurements taken from patent US20250163047A1, “HETEROCYCLIC COMPOUNDS, COMPOSITIONS THEREOF, AND METHODS OF TREATMENT THEREWITH” (BeiGene, Ltd., priority 2022, published 2025).

Tests used:
Cbl-b (aa36-427) = target: T1, Cbl-b (aa36-427) (Homo sapiens, UniProt Q13191); assay: Co-expressed Cbl-b with BirA biochemical assay (CBLB/E2-Ub binding, HTRF); details: 0.6 nM Cbl-b co-expressed with BirA, HTRF; read-out: co-express CBLB/E2-Ub-binding assay IC50
T1 construct: Cbl-b (aa36-427, in-house); made in house
Text: (§1) The assay in the absence of a Cbl-b/Cbl inhibitor, where phosphorylation of Cbl-b/Cbl by the Src kinase allows UbcH5B-Ub to bind to Cbl-b/Cbl and brings the Bodipy-Fluorescein tagged ubiquitin in proximity to the streptavidin-terbium bound to the N-terminal biotinylated Avi-tagged Cbl-b/Cbl. […] The lack of a FRET signal indicates Cbl-b/Cbl is inhibited by the Cbl-b/Cbl inhibitor.

Cbl (aa49-434) = target: T2, Cbl (aa49-434) (Homo sapiens, UniProt P22681); assay: Co-expressed Cbl with BirA biochemical assay (CBL/E2-Ub binding, HTRF); details: 0.6 nM Cbl co-expressed with BirA, read-out: co-express CBL/E2-Ub-binding assay IC50
T2 construct: Cbl (aa49-434, in-house); made in house
T2 sequence (P22681 49-434): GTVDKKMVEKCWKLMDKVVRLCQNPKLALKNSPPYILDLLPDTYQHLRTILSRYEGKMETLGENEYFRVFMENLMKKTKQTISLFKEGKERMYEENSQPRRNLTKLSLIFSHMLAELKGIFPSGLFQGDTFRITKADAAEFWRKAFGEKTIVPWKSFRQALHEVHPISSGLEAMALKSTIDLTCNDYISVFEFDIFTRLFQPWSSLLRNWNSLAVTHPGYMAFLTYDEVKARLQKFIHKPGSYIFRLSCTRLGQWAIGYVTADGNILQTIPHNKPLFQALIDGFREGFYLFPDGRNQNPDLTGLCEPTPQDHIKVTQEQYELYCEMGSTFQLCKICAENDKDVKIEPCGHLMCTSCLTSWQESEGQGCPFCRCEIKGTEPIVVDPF
Text: as §1

T1 sequence (Q13191 36-427): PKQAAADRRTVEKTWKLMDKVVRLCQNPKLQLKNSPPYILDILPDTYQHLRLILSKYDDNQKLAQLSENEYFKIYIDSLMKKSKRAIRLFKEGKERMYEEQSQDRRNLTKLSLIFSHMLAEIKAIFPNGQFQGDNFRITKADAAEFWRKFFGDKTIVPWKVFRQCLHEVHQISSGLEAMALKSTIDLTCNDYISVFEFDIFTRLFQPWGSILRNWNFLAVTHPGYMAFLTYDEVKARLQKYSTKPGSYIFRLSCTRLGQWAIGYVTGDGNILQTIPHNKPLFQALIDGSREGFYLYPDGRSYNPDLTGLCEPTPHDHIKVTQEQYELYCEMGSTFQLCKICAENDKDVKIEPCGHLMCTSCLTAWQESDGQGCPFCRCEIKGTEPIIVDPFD

SMILES	IC50 (Cbl-b (aa36-427))	IC50 (Cbl (aa49-434))
Cn1cnnc1[C@]1(c2cccc(NC(=O)c3cc(CNC4(C)CC4)cn4ncnc34)c2)C[C@H](CC#N)C1 [Compound A89, N-(3-((1s, 3s)-3-(cyanomethyl)-1-(4-methyl-4H-1,2,4-triazol-3-yl)cyclobutyl)phenyl)-6-(((1-methylcyclopropyl)amino)methyl)-[1,2,4]triazolo[1,5-a]pyridine-8-carboxamide]	1.7 nM	45 nM
C[C@H](NCc1cc(C(=O)Nc2cccc([C@]3(c4nncn4C)C[C@@H](CC#N)C3)c2)c2nccn2c1)C1CC1 [Compound A27, N-(3-((1s,3R)-3-(cyanomethyl)-1-(4-methyl-4H-1,2,4-triazol-3-yl)cyclobutyl)phenyl)-6-((((S)-1-cyclopropylethyl)amino)methyl)imidazo[1,2-a]pyridine-8-carboxamide]	1.4 nM	8 nM
C[C@H]1CCCN(Cc2cc(C(=O)Nc3cccc([C@]4(c5nncn5C)C[C@@H](C)C4)c3)c3nc(F)cn3c2)C1 [Compound A8, 2-fluoro-N-(3-((1s,3R)-3-methyl-1-(4-methyl-4H-1,2,4-triazol-3-yl)cyclobutyl)phenyl)-6-(((S)-3-methylpiperidin-1-yl)methyl)imidazo[1,2-a]pyridine-8-carboxamide]	6 nM	18.7 nM
Cn1cnnc1[C@]1(c2cncc(NC(=O)c3cc(CNC4(C)CCC4)c4[nH]cc(Cl)c4n3)c2)C[C@H](C)C1 [Compound B52, 3-chloro-N-(5-((1s, 3s)-3-methyl-1-(4-methyl-4H-1,2,4-triazol-3-yl)cyclobutyl)pyridin-3-yl)-7-(((1-methylcyclobutyl)amino)methyl)-1H-pyrrolo[3,2-b]pyridine-5-carboxamide]	5 nM	19 nM
C[C@H](NCc1cc(C(=O)Nc2cccc([C@]3(c4nncn4C)C[C@@H](C)C3)c2)nc2cc[nH]c12)C1CCC1 [Compound B35, 7-((((S)-1-cyclobutylethyl)amino)methyl)-N-(3-((1s,3R)-3-methyl-1-(4-methyl-4H-1,2,4-triazol-3-yl)cyclobutyl)phenyl)-1H-pyrrolo[3,2-b]pyridine-5-carboxamide]	0.7 nM	1.1 nM
Cn1cnnc1[C@]1(c2cccc(NC(=O)c3cc(CNC4(C)CC4)c4[nH]ccc4n3)c2)C[C@H](CC#N)C1 [Compound B26, N-(3-((1s, 3s)-3-(cyanomethyl)-1-(4-methyl-4H-1,2,4-triazol-3-yl)cyclobutyl)phenyl)-7-(((1-methylcyclopropyl)amino)methyl)-1H-pyrrolo[3,2-b]pyridine-5-carboxamide]	1.3 nM	4.1 nM
Cn1cnnc1[C@]1(c2cccc(NC(=O)c3cc(CNCC4CCC(F)(F)CC4)c4c(n3)C(C)(C)CO4)c2)C[C@H](CC#N)C1 [Compound C20, N-(3-((1s, 3s)-3-(cyanomethyl)-1-(4-methyl-4H-1,2,4-triazol-3-yl)cyclobutyl)phenyl)-7-((((4,4-difluorocyclohexyl)methyl)amino)methyl)-3,3-dimethyl-2,3-dihydrofuro[3,2-b]pyridine-5-carboxamide]	6.9 nM	79 nM
Cn1cnnc1[C@]1(c2cccc(NC(=O)c3cc(CNCC4CCC4)c4c(n3)C(C)(C)CC4)c2)C[C@H](C)C1 [Compound C57, 4-(((cyclobutylmethyl)amino)methyl)-7,7-dimethyl-N-(3-((1s, 3s)-3-methyl-1-(4-methyl-4H-1,2,4-triazol-3-yl)cyclobutyl)phenyl)-6,7-dihydro-5H-cyclopenta[b]pyridine-2-carboxamide]	0.9 nM	3.4 nM
C[C@H](NCc1cc(C(=O)Nc2cccc([C@]3(c4nncn4C)C[C@@H](C)C3)c2)nc2c1CCC2(F)F)C1CC1 [Compound C60, 4-((((S)-1-cyclopropylethyl)amino)methyl)-7,7-difluoro-N-(3-((1s,3R)-3-methyl-1-(4-methyl-4H-1,2,4-triazol-3-yl)cyclobutyl)phenyl)-6,7-dihydro-5H-cyclopenta[b]pyridine-2-carboxamide]	1.1 nM	9.2 nM
